Read-outs that look alike come from different tables or passages of the source.
Tests used:
[1] = system: bloodstream form T. brucei; assay: Growth inhibition of wild type / control bloodstream form T. brucei (resazurin); type: cell-based
L. major promastigotes = assay: Growth inhibition of L. major promastigotes (resazurin); type: cell-based; conditions: for EC50: read-out: L. major EC50
T. cruzi epimastigotes = assay: Growth inhibition of T. cruzi epimastigotes (resazurin); type: cell-based; conditions: for EC50: read-out: T. cruzi EC50
RH1^RC1 T. brucei = assay: microbe, parasite or virus in culture; type: cell-based; conditions: for EC50: read-out: EC50 RH1^RC1
[2] = system: T. brucei Tbsnm1 null mutants (ΔTbsnm1); assay: microbe, parasite or virus in culture; type: cell-based; conditions: for EC50: Trypanosoma brucei, read-out: EC50 ΔTbsnm1
[3] = system: T. brucei over expressing TbCPR2 (Tbcpr2++); assay: microbe, parasite or virus in culture; type: cell-based; conditions: for EC50: Trypanosoma brucei, read-out: EC50 Tbcpr2++
[4] = system: T. brucei over expressing TbNTR (Tbntr++); assay: microbe, parasite or virus in culture; type: cell-based; conditions: for EC50: Trypanosoma brucei, read-out: EC50 Tbntr++
[5] = system: differentiated THP‐1 cells; assay: Mammalian inhibition assay, differentiated THP-1 cells; type: cell-based; conditions: Homo sapiens, read-out: THP‐1 EC50
[6] = system: mouse peritoneal macrophages; assay: Toxicity to mouse peritoneal macrophages (cell counts, Giemsa); type: cell-based, BALB/c mice; conditions: Peritoneal macrophage, 120 h, read-out: EC50 towards mouse peritoneal macrophages
[7] = system: ΔTbsnm1 Tbntr++ T. brucei; type: cell-based
RH1^RC2 T. brucei = assay: microbe, parasite or virus in culture; type: cell-based; conditions: read-out: EC50 RH1^RC2
Wild type T. brucei = type: cell-based
[8] = system: T. brucei Tbntr heterozygote line; type: cell-based
[9] = Trypanosoma brucei, 72 h, read-out: T. brucei EC50
[10] = Trypanosoma brucei, read-out: EC50 Wild type
[11] = Trypanosoma brucei, Table 3, BSF T. brucei wild type, read-out: EC50 Wild type
[12] = Trypanosoma brucei, read-out: EC50 Control
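Throughout, for ratio (fold difference in EC50 between RH1^RC1 and wild type): resistant clone selected by stepwise exposure to the aziridinyl benzoquinone prodrug in culture.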

## CCC(=O)NC1=C(N2CC2C)C(=O)C(NC(=O)CC)=C(N2CC2C)C1=O (stereo not drawn) [ABQ33]
[1]; [9]
  EC50: > 10000 nM
L. major promastigotes; Leishmania major, 144 h
  EC50: 8157 ± 80 nM
T. cruzi epimastigotes; Trypanosoma cruzi, 336 h
  EC50: > 10000 nM

## CCOC(=O)NC1=C(N2CC2)C(=O)C(NC(=O)OCC)=C(N2CC2)C1=O [AZQ]
[1]; [9]
  EC50: 8230 ± 272 nM
L. major promastigotes; Leishmania major, 144 h
  EC50: > 10000 nM
T. cruzi epimastigotes; Trypanosoma cruzi, 336 h
  EC50: 6000 ± 283 nM

## NC(=O)c1cc(N2CC2)c([N+](=O)[O-])cc1[N+](=O)[O-] [CB1954, reference compound]
RH1^RC1 T. brucei; Trypanosoma brucei
  EC50: 13100 ± 972 nM
[1]; [10]
  EC50: 2160 ± 125 nM

## NCCCC(N)(C(=O)O)C(F)F (stereo not drawn) [DFMO, difluoromethylornithine, reference compound]
[2]
  Ratio of EC50 values ΔTbsnm1 / control: 0.99
  Susceptibility of Tbsnm1 null mutants relative to wild type / control (fold more susceptible): no significant difference
  EC50: 27100 ± 850 nM
[3]
  Fold difference in EC50 Tbcpr2++ relative to control: 33250 ± 5123 (1.21)
  EC50: 33200 nM
RH1^RC1 T. brucei
  ratio (fold difference in EC50 between RH1^RC1 and wild type): 1.3
RH1^RC1 T. brucei; Trypanosoma brucei
  EC50: 22200 ± 383 nM
[1]; [11]
  EC50: 16800 ± 2690 nM
[1]; [12]
  EC50: 27500 ± 108 nM
[4]
  Fold difference in EC50 Tbntr++ relative to control: 30720 ± 1330 (1.12)
  EC50: 30700 nM

## O=C1C=C(N2CC2)C(=O)C=C1N1CC1 [DZQ]
[5]; THP-1, 72 h
  EC50: 181 ± 5 nM
[2]
  Ratio of EC50 values ΔTbsnm1 / control: 0.27
  EC50: 43 ± 2 nM
[1]
  T. brucei SI: 1
[1]; [9]
  EC50: 272 ± 1 nM
[6]
  EC50: 255 nM
L. major promastigotes
  L. major EC50: high potency
  L. major SI: 3
L. major promastigotes; Leishmania major, 144 h
  EC50: 60 ± 1 nM
[4]
  Fold difference in EC50 Tbntr++ relative to control: 90 ± 3 (0.28 )
  EC50: 90 nM
T. cruzi epimastigotes
  T. cruzi SI: 36
  EC50: 5 ± 1 nM
T. cruzi epimastigotes; Trypanosoma cruzi, 336 h
  EC50: < 10 nM

## O=NN(CCCl)C(=O)NC1CCCCC1 [Lomustine]
RH1^RC1 T. brucei
  ratio (fold difference in EC50 between RH1^RC1 and wild type): 0.9
RH1^RC1 T. brucei; Trypanosoma brucei
  EC50: 15500 ± 665 nM
[1]; [11]
  EC50: 16600 ± 443 nM

## CC1=C(N2CC2)C(=O)C(C)=C(N2CC2)C1=O [MeDZQ]
[5]; THP-1, 72 h
  EC50: 885 ± 23 nM
[1]
  T. brucei SI: 1
[1]; [9]
  EC50: 698 ± 57 nM
[1]; [12]
  EC50: 740 ± 18 nM
L. major promastigotes
  L. major SI: 2
L. major promastigotes; Leishmania major, 144 h
  EC50: 560 ± 139 nM
[4]
  Fold difference in EC50 Tbntr++ relative to control: 115 ± 3 (0.16 )
  EC50: 115 nM
T. cruzi epimastigotes
  T. cruzi SI: 16
T. cruzi epimastigotes; Trypanosoma cruzi, 336 h
  EC50: 55 ± 2 nM

## N[C@@H](Cc1ccc(N(CCCl)CCCl)cc1)C(=O)O [Melphalan]
RH1^RC1 T. brucei
  ratio (fold difference in EC50 between RH1^RC1 and wild type): 1.2
RH1^RC1 T. brucei; Trypanosoma brucei
  EC50: 10400 ± 230 nM
[1]; [10]
  EC50: 8740 ± 200 nM

## CC1=C(N2CC2)C(=O)C(CO)=C(N2CC2)C1=O [RH1]
[5]; 72 h, differentiated THP‐1 cells, 3 days
  EC50: < 100 nM
[2]
  Ratio of EC50 values ΔTbsnm1 / control: 0.26
  Susceptibility of Tbsnm1 null mutants relative to wild type / control (fold more susceptible): threefold
  EC50: 5 ± 1 nM
[7]
  Fold increase in susceptibility of ΔTbsnm1 Tbntr++ versus wild type: 15 fold
[3]
  Fold difference in EC50 Tbcpr2++ relative to control: 20 ± 3 (1.05)
  EC50: 20 nM
RH1^RC1 T. brucei
  Doubling time of resistant clones: ~10.5 h
  Fold less sensitive, RH1^RC lines versus controls: ~4.5 fold
  Fold less sensitive, RH1^RC lines versus wild type: ~3.5 fold
  ratio (fold difference in EC50 between RH1^RC1 and wild type): 3.3
  EC50: 83 ± 2 nM
RH1^RC1 T. brucei; Trypanosoma brucei
  EC50: 86 ± 3 nM
[1]; Selectivity Index: fold difference in EC50 of THP‐1 line relative to parasite
  T. brucei SI: <5
[1]; Trypanosoma brucei, Table 2, parasites expressing wild type levels, read-out: EC50 Control
  EC50: 19 ± 1 nM
[1]; [11]
  EC50: 25 ± 6 nM
[1]; Trypanosoma brucei, Table 4, wild type T. brucei, read-out: EC50 Control
  EC50: 19 ± 1 nM
[1]; Trypanosoma brucei, 5 nM
  inhibition at 0.005 µM: ~10%
[1]; medium containing RH1 (40 nM), after 24 hrs
  Growth of wild type T. brucei: no growth
[6]; non‐cancerous primary cells, up to 5 days
  EC50: < 100 nM
RH1^RC2 T. brucei; Trypanosoma brucei
  EC50: 91 ± 11 nM
RH1^RC2 T. brucei
  EC50: 92 ± 1 nM
L. major promastigotes
  L. major SI: <1
L. major promastigotes; Leishmania major, 144 h, promastigotes, 6 days
  EC50: < 100 nM
L. major promastigotes; promastigotes, 6 days
  L. major EC50: high potency
  EC50: 68 ± 1 nM
Wild type T. brucei
  Cells in G1/S phase (1N1K): 37%
  Cells in G2/M phase (1N2K): 58%
[4]
  Fold difference in EC50 Tbntr++ relative to control: 3 ± 1 (0.16 )
  Susceptibility of TbNTR over expressing T. brucei relative to controls / wild type (fold more susceptible): fivefold
  EC50: 3 nM
T. cruzi epimastigotes
  T. cruzi SI: <33
[8]
  EC50 of Tbntr heterozygote line relative to wild type (fold greater): approximately 2.5 fold

## CC1CCC(NC(=O)N(CCCl)N=O)CC1 (stereo not drawn) [Semustine]
RH1^RC1 T. brucei
  ratio (fold difference in EC50 between RH1^RC1 and wild type): 1.1
RH1^RC1 T. brucei; Trypanosoma brucei
  EC50: 17100 ± 3620 nM
[1]; [10]
  EC50: 15000 ± 3460 nM

## O=C1C=C(N2CC2)C(=O)C(N2CC2)=C1N1CC1 [TZQ]
[5]; THP-1, 72 h
  EC50: < 100 nM
[2]
  Ratio of EC50 values ΔTbsnm1 / control: 0.18
  Susceptibility of Tbsnm1 null mutants relative to wild type / control (fold more susceptible): 2.7 fold
  EC50: 46 ± 1 nM
[7]
  Fold increase in susceptibility of ΔTbsnm1 Tbntr++ versus wild type: 15 fold
[3]
  Fold difference in EC50 Tbcpr2++ relative to control: 284 ± 13 (1.26)
  EC50: 284 nM
[1]
  T. brucei SI: <1
[1]; [9]
  EC50: 179 ± 1 nM
[1]; [12]
  EC50: 225 ± 26 nM
[1]; read-out: EC50 Control
  EC50: 253 ± 33 nM
[6]
  EC50: < 100 nM
L. major promastigotes
  L. major SI: <11
[4]
  Fold difference in EC50 Tbntr++ relative to control: 60 ± 9 (0.27 )
  EC50: 60 nM
T. cruzi epimastigotes
  T. cruzi SI: <33

## S=P(N1CC1)(N1CC1)N1CC1 [ThioTEPA, reference compound]
RH1^RC1 T. brucei; Trypanosoma brucei
  EC50: 56300 ± 1960 nM
[1]; [10]
  EC50: 39400 ± 796 nM

## C1CN1c1nc(N2CC2)nc(N2CC2)n1 [Triethylenemelamine]
RH1^RC1 T. brucei
  ratio (fold difference in EC50 between RH1^RC1 and wild type): 1.1
RH1^RC1 T. brucei; Trypanosoma brucei
  EC50: 2770 ± 64 nM
[1]; [10]
  EC50: 2400 ± 86 nM

## O=C(Cn1ccnc1[N+](=O)[O-])NCc1ccccc1 [benznidazole]
RH1^RC1 T. brucei
  Susceptibility of RH1 selected (RH1^RC) lines relative to wild type: cross‐resistance

## phleomycin [reference compound]
Wild type T. brucei
  Cells in G1/S phase (1N1K): approximately 80%

From article PMC5656836, “Distinct activation mechanisms trigger the trypanocidal activity of DNA damaging prodrugs” (Molecular Microbiology, 2017)
